Data from PubChem BioAssay AID179 (DTP/NCI, 2004).
Calls of active or inactive are those of the source.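 Rule for the calls: active = compounds giving half or more protection of infected cells from virus-caused growth loss, again on retest; inactive = the rest.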

Tested on: CEM cells HIV-1 protection, formazan growth assay
Test: NCI AIDS Antiviral Assay
Details: for IC50: measured here: growth of uninfected CEM cells
Summary of the method: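 CEM (human) cells, HIV-1 infected vs uninfected, 5-point dosing, formazan growth read-out. Retest threshold 50% protection.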

SMILES | EC50 [µM] | IC50 [µM] | outcome
COC(=O)c1cc(C#N)[nH]c1-c1ccc(C)s1 | > 200 | 35.5 | –
COc1ccc(NC(=O)CC(=O)n2nc(-c3ccccc3)c(N=Nc3ccccc3C)c2-c2ccccc2)cc1 | > 13.5 | > 13.5 | –
CCCCCCCCCCCCCCCCCC(=O)OCC(COC1OC(COS(=O)(=O)O)C(O)C(O)C1O)OC(=O)CCCCCCCCCCCCCCCCC (centres undefined) | – | – | inactive
Nc1ccn(C2OC(CO)C(O)C2O)c(=O)n1 (centres undefined) | > 2 | 0.00275 | –
CC1=CCCC2C(C1)C(=O)CC(C)C2(C)CC/C(=C/CO)CO (centres undefined) | – | – | inactive
CSc1nc2c(c(=O)[nH]1)N=C(c1ccccc1)CC(c1ccccc1)N2 (centres undefined) | – | – | inactive
O=C(O)c1cc2cccc(S(=O)(=O)O)c2cc1O | > 200 | > 200 | –
O=[N+]([O-])c1cccc2c(Nc3ccc(S(=O)(=O)Nc4nccs4)cc3)c3ccccc3nc12 | > 200 | 21.9 | –
CC1=Nc2nnnn2N=C(C)C1 | > 234 | > 234 | –
N#CC(C#N)=Cc1ccc(SCc2ccc(Cl)cc2)cc1 | > 200 | 135 | –
Cc1cc(Cl)ccc1NC(=O)CCCC(=O)C(C(=O)c1ccccc1)c1ccccc1 (centres undefined) | – | – | inactive
O=c1[nH]n(-c2ccccc2)c(=O)cc1Cl | > 85.1 | > 85.1 | –
CCc1n[nH]c(=O)n1N1C(=O)CCC1=O | > 200 | > 200 | –
CCCCN=C(NC#N)N(Cc1ccccc1)Cc1ccccc1 | > 100 | 22.9 | –
Clc1ccc(/C=N/N=C/c2ccc(Cl)cc2)cc1 | – | – | inactive
COc1ccc(S(=O)(=O)N/N=C\c2cc([N+](=O)[O-])cc(I)c2O)c(OC)c1OC | > 468 | 67.6 | –
Cc1nc2c(=O)[nH]c(=O)nc-2n(CCO)c1C | > 100 | 40.7 | –
Cc1ccc(NC(=O)CCc2nc(N)nc(N)c2-c2ccccc2)cc1C | > 692 | > 692 | –
CCOC(=O)C1(C(F)(F)F)N=C(CC)OC(N2CCOCC2)=N1 (centres undefined) | > 200 | > 200 | –
CCC(=O)NC(Nc1cccc(F)c1)(C(F)(F)F)C(F)(F)F | > 200 | > 200 | –
O=C1N[C@@H](Cc2ccccc2)C(=O)N2CSC[C@H]12 | > 631 | > 631 | –

SMILES | EC50 [µM] | IC50 [µM] | outcome
CC1(C)CC[C@H](C2=CC(=O)c3c(O)ccc(O)c3C2=O)O1 | > 91.2 | 0.0955 | –
CC(C)(C)OC(=O)N1NC(c2ccccc2)CC1c1ccccc1 (centres undefined) | > 200 | 28.2 | –
OCc1ccc2[n+](c1)CCc1c-2[nH]c2ccccc12 | > 77.6 | > 77.6 | –
N#C[C@H](c1nc2ccccc2s1)c1nc2ccccc2nc1Cl | > 100 | > 100 | –
Nc1ncnc2c1ncn2C1C=CC(=O)CC1 (centres undefined) | > 31.6 | 5.62 | –
NC(S(=O)(=O)O)S(=O)(=O)O | > 200 | 91.2 | –
COc1ccc(-c2nc3c(nc2-c2ccc(OC)cc2)C(N)=NS(=O)(=O)N3)cc1 | > 166 | > 166 | –
COC(=O)C(=O)C(C(C)=O)C(=O)NCc1ccc(OC)c(OC)c1 (centres undefined) | 61.7 | 741 | –
CC1C2C1C1C3NN=CC3C2n2c(=O)n(-c3ccccc3)c(=O)n21 (centres undefined) | > 200 | > 200 | –
O=S(=O)(O)c1cc(N/N=C/c2cc(S(=O)(=O)O)c3cccnc3c2O)ccc1/C=C/c1ccc(N/N=C/c2cc(S(=O)(=O)O)c3cccnc3c2O)cc1S(=O)(=O)O | 13.5 | 129 | –
O=C(Nc1cc2c(oc1=O)CCC2)c1cnccn1 | > 100 | > 100 | –
CC(=O)OCC12CCC(C)=CC1OC1C(O)C(OC(C)=O)C2(C)C12CO2 (centres undefined) | > 3.39 | 0.00331 | –
O=C(O)CCCCSCCCCC(=O)O | > 1070 | > 1070 | –
c1ccc2c(c1)OCCOCCOc1ccccc1OCCO2 | > 295 | 74.1 | –
COc1ccc(C(=C2C(=O)OC(=O)C2=C(C)C)c2ccc(OC)cc2)cc1 | > 200 | 95.5 | –
CC[C@@]1(C[C@H]2C[C@@]3(C(=O)OC)c4[nH]c5ccccc5c4CCN3C2=O)COC2(CCCCC2)O1 | > 200 | 35.5 | –
N#Cc1c2nc3ccccc3nc2n2ccccc12 | > 40.7 | > 40.7 | –
N#Cc1c2ccc([N+](=O)[O-])cc2c(=O)n2c1[nH]c1ccc(C(F)(F)F)cc12 | > 200 | 1.91 | –
O=C(OCc1ccccc1)N1CCNCCNCC1 | > 200 | > 200 | –
C=CCOc1cc(NC(=S)c2sccc2C)ccc1Cl | 1.45 | 14.5 | –
Nc1c2ccccc2nc2c1ccc1ncccc12 | > 200 | 6.46 | –
